Source: patent publication US4701325A, “Injectable aqueous solution containing hydrogensulfite and/or sulfite and anticancerous benzodiazepine compound” (priority 1983, dated 1987)
Where a name gives a salt, the structure may show the parent alone.

Columns and labels:
[1] = Stability of compound B in aqueous solution of NaHSO3 or Na2SO3 by HPLC; format: physicochemical; details: 3 hours at room temperature, 0.2 mg/ml compound B, Sample: with 2.0 mg/ml NaHSO3 or Na2SO3, read-out: Ratio of remaining compound B
Experimental: It was confirmed that the stability of the compound B was not affected when an aqueous solution of NaHSO3 or Na2 SO3 was used as the dissolving medium of the compound B. In a sample of 10 ml of an aqueous solution containing 0.2 mg of the compound B and 2.0 mg of NaHSO3 or Na2 SO3 in 1 ml thereof, analysis was made on high-performance liquid chromatography just after dissolving the compound B and after standing the solution for 3 hours at room temperature, to examine the stability of the compound B. The results are as shown in Table 3.

p 388 leukemia = test: Antitumor activity in p 388 leukemia cancer-bearing BDF1 mice; format: in vivo; details: i.v. once a day for 4 days, compound B 2 mg/Kg/day, NaHSO3 or Na2SO3 20 mg/kg/day
Experimental: By the comparative examintion of mean survival days of the mice, index of life saving was calculated by the equation below: [formula]

[2] = tested on: ear vein of white rabbits; test: Tissue injury (edema ratio) after intravenous administration into the ear vein of rabbits for 5 days; format: in vivo; details: ear vein once a day for 5 days; measured 4 days after final administration; compound B 0.16 mg/Kg/day, NaHSO3 1.6 mg/Kg/day
Experimental: The same materials as those in Example 1 were used to determine the effect thereof administered to white rabbits (male, 2.0-2.3 kg) in groups of four in the ear vein once a day for consective 5 days. The material adminitered to the respective groups was (1) physiological saline, or (2) 0.16 mg of the compound B/Kg/day, (3) 0.16 mg of the compound B+1.6 mg of NaHSO3 /Kg/day or (4) 1.6 mg of NaHSO3 /Kg/day. The solution volumes to be administered were all fixed at 0.5 ml/Kg/day which contains respective material or materials in the above dosage.
For confirmation of the effect, the appearance was observed and the thickness at the administration site was measured 4 days after the final administration to serve as the index of tissue injury.
The edema ratio was determined according to the following equation. [formula]

[3] = Acute toxicity (LD50) in ddY strain mice; format: in vivo; details: mouse, in vivo, iv, male ddY mice 18-20 g; combination with 10 times amount of NaHSO3
Experimental: (§1) The materials were administered to ddY strain mice (male, 18-20 g) intravenously to determine the LD50 (mg/Kg). […] Incidentally, NaHSO3 or Na2 SO 3 itself is a substance prescribed in Japanese Parmacopoeia and its safety has been established already.

ddY strain mice = test: Acute toxicity (LD50) in ddY strain mice; format: in vivo; details: i.v., mice; 10 times amount of NaHSO3
Experimental: as §1

## Cc1ccc2c(c1O)NC(S(=O)O)C1CC(/C=C/C(N)=O)=CN1C2=O (stereo not shown) [Compound B, sodium salt of 5,10,11,11a-terahydro-9-hydroxy-8-methyl-5-oxo-11-sulfino-1H-pyrrolo[2,1-c][1,4]benzodiazepin-2-acrylamide]
[1]
  remaining at 3 h: 100%
P 388 leukemia; control 10 days
  Mean survival day: 18.0 days
P 388 leukemia; relative to physiological saline
  Index of life saving (%): 80%
[2]
  Edema ratio (%): 169.4%
[3]
  LD50: 6.23 mg/kg

## O=S([O-])O.[Na+] [NaHSO3, sodium hydrogensulfite, reference compound]
[2]
  Edema ratio (%): 0.0%
ddY strain mice
  Effect on acute toxicity of the compound B (in words): did not affect the acute toxicity of the compound B at all
